The term IC50 denotes the concentration needed to halve the response being measured.

The results in this text go back to publication PMC3446250 (2012).

This assay concerns the target T1, GLIC (Gloeobacter violaceus, UniProt Q7NDN8, N194C).
T1 sequence (Q7NDN8 44-359 N194C): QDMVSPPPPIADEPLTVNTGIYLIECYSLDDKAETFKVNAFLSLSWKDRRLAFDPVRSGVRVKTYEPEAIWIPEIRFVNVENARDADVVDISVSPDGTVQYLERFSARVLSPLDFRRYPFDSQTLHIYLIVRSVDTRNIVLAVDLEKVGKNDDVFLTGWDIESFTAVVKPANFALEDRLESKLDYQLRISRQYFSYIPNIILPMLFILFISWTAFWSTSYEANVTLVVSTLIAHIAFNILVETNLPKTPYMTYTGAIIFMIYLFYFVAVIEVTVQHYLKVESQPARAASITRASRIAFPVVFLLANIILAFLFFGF
Kind of assay: two-electrode voltage clamp in Xenopus oocytes at EC20. It is filed as cell-based. For orientation: Two-electrode voltage clamp is typically applied to oocytes expressing channels or transporters.

For the molecule `CNC1(c2ccccc2Cl)CCCCC1=O` (stereo not shown) [ketamine], the IC50 came to 110 µM.
